Earlier results, collected in US6379706B2, “Rapidly disintegrating coated pellets with delayed release” (Roche Diagnostics GmbH, priority 1996, dated 2002).

Settings: for solubility (in words): aqueous medium

COc1ccccc1OCCNCC(O)COc1cccc2[nH]c3ccccc3c12 (racemic) [Carvedilol, (+/−)-1-(9H-carbazol-4-yloxy)-3-[(2-(2-methoxyphenoxy)-ethyl)-amino]-2-propanol]
solubility (in words): poorly soluble
solubility in the intestinal juice (in words) (intestinal juice): particularly poorly soluble

CC(C)(Oc1ccc(CCNC(=O)c2ccc(Cl)cc2)cc1)C(=O)O [Bezafibrat, 2-{4-[2-[(4-chloro-benzoyl)-amino]ethyl]-phenoxy}-2-methylpropionic acid]
solubility (in words): poorly soluble

Cc1cccc(Nc2ccncc2S(=O)(=O)NC(=O)NC(C)C)c1 [Torasemid, 1-isopropyl-3-[(4-m-toluidino-3-pyridyl)sulfonyl]-urea]
solubility (in words): poorly soluble
